Among the data in PubChem BioAssay AID298 (DTP/NCI, 2004) are T/C values, retold here.

Several values for one entry are separate records, joined by “and”; a condition that tells them apart may be missing. Equal values may be shown once. Results filed as inconclusive are left out.

The test relates to MX-1 breast xenograft, intrarenal, nude mice, tumor weight. As to the kind of experiment: NCI In Vivo Anticancer Drug Screen. Data for tumor model Human Mammary Carcinoma MX-1 Xenograft (intrarenal inoculation) in NU/NU BALB/C (nude) mice. Particulars: endpoint: mean tumor weight change, higher = larger tumour. An outline of the steps: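 T/C readout: treated-group measurement over vehicle-control measurement, using tumor size or survival in tumor-bearing mice.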
For orientation: In xenograft studies the graft and the host belong to different species.

Setting [1] is: dose: 12.5 mg/kg/injection, schedule: Q04DX003 (ip), vehicle: saline with Tween-80.
Where [2] appears, read: dose: 25.0 mg/kg/injection, schedule: Q04DX003 (ip), vehicle: saline with Tween-80.
The mark [3] stands for this setting: dose: 150.0 mg/kg/injection, schedule: Q04DX003 (ip), vehicle: saline with Tween-80.
[4] abbreviates: dose: 100.0 mg/kg/injection, schedule: Q04DX003 (ip), vehicle: other.
The mark [5] stands for this setting: dose: 75.0 mg/kg/injection, schedule: Q04DX003 (ip), vehicle: water.
The mark [6] stands for this setting: dose: 75.0 mg/kg/injection, schedule: Q04DX003 (ip), vehicle: saline with Tween-80.
The mark [7] stands for this setting: dose: 240.0 mg/kg/injection, schedule: Q04DX003 (ip), vehicle: saline with Tween-80.

In the case of `CCn1c(-c2ccc(OC(C)=O)cc2)c(C)c2cc(OC(C)=O)ccc21`, the T/C by setting is: (dose: 150.0 mg/kg/injection, schedule: Q04DX003 (ip), vehicle: Klucel (hydroxypropylcellulose) (HPC)) 68 % of control; (dose: 300.0 mg/kg/injection, schedule: Q04DX003 (ip), vehicle: Klucel (hydroxypropylcellulose) (HPC)) 61 % of control; (dose: 600.0 mg/kg/injection, schedule: Q04DX003 (ip), vehicle: Klucel (hydroxypropylcellulose) (HPC)) 63 % of control; (dose: 1200.0 mg/kg/injection, schedule: Q04DX003 (ip), vehicle: Klucel (hydroxypropylcellulose) (HPC)) 47 % of control.
For `Cc1cc(O)c2c(c1O)C(=O)C13C(=C2O)C(=O)C2C(O)C1C1C(O)C3C(=O)C3=C(O)c4c(O)cc(C)c(O)c4C(=O)C321` (centres undefined), the T/C under setting [1] was 107 % of control and the T/C under setting [2] was 76 % of control.
`O=C1C=C2C(=CCOC2O)O1` (centres undefined): the T/C is, setting by setting: (dose: 1.0 mg/kg/injection, schedule: Q04DX003 (sc), vehicle: Klucel (hydroxypropylcellulose) (HPC)) 87 % of control; (dose: 2.0 mg/kg/injection, schedule: Q04DX003 (sc), vehicle: Klucel (hydroxypropylcellulose) (HPC)) 79 % of control; (dose: 4.0 mg/kg/injection, schedule: Q04DX003 (sc), vehicle: Klucel (hydroxypropylcellulose) (HPC)) 59 % of control.
For `O=S(=O)(O)C1=CC(=N\Cl)/C=CC/1=N/Cl`, the T/C under setting [3] is 89 % of control.
On to `S=C(N/N=C1/CCCC/C1=N/NC(=S)N1CCOCC1)N1CCOCC1`, for which the T/C was 81 % of control (dose: 6.25 mg/kg/injection, schedule: Q04DX003 (ip), vehicle: saline with Tween-80); 76 % of control under setting [1]; 48 % of control under setting [2].
Consider `NC(Cc1ccc(N(CCCl)CCCl)cc1)C(=O)O` (centres undefined), for which the T/C runs as follows: (dose: 10.0 mg/kg/injection, schedule: Q04DX003 (sc), vehicle: Klucel (hydroxypropylcellulose) (HPC)) -85 % of control and -98 % of control; (dose: 20.0 mg/kg/injection, schedule: Q04DX003 (sc), vehicle: Klucel (hydroxypropylcellulose) (HPC)) -90 % of control.
In the case of `NC(Cc1ccccc1)C(=O)OCN1C(=O)C2C3C=CC(C2C1=O)C1C2C(=O)N(COC(=O)C(N)Cc4ccccc4)C(=O)C2C31` (centres undefined), the T/C was 76 % of control (dose: 21.6 mg/kg/injection, schedule: Q01DX009 (ip), vehicle: water); 94 % of control (dose: 25.0 mg/kg/injection, schedule: Q04DX003 (ip), vehicle: other); 57 % of control (dose: 30.9 mg/kg/injection, schedule: Q01DX009 (ip), vehicle: water); 111 % of control (dose: 44.1 mg/kg/injection, schedule: Q01DX009 (ip), vehicle: water); 86 % of control (dose: 50.0 mg/kg/injection, schedule: Q04DX003 (ip), vehicle: other); 52 % of control (dose: 63.0 mg/kg/injection, schedule: Q01DX009 (ip), vehicle: water). Further, the T/C by setting is: (dose: 90.0 mg/kg/injection, schedule: Q01DX009 (ip), vehicle: water) 24 % of control; under setting [4], 65 % of control; (dose: 200.0 mg/kg/injection, schedule: Q04DX003 (ip), vehicle: other) 39 % of control.
`Cc1nnc2ncccn12`: the T/C was 86 % of control (dose: 100.0 mg/kg/injection, schedule: Q04DX003 (sc), vehicle: saline) and 104 % of control (dose: 200.0 mg/kg/injection, schedule: Q04DX003 (sc), vehicle: saline).
Turning to `CS(=O)(=O)CS(=O)(=O)OCCCl`, the T/C (dose: 21.6 mg/kg/injection, schedule: Q04DX003 (ip), vehicle: other) is 61 % of control; the T/C (dose: 36.0 mg/kg/injection, schedule: Q04DX003 (ip), vehicle: other) is 28 % of control; the T/C (dose: 37.5 mg/kg/injection, schedule: Q04DX003 (sc), vehicle: suspension in saline) was 106 % of control; the T/C (dose: 60.0 mg/kg/injection, schedule: Q04DX003 (ip), vehicle: other) is 25 % of control; the T/C (dose: 75.0 mg/kg/injection, schedule: Q04DX003 (sc), vehicle: suspension in saline) is 106 % of control; the T/C (dose: 99.6 mg/kg/injection, schedule: Q04DX003 (ip), vehicle: dextrose) is 100 % of control. The T/C (dose: 99.6 mg/kg/injection, schedule: Q04DX003 (ip), vehicle: other) was 19 % of control; the T/C under setting [4] was 43 % of control; the T/C (dose: 150.0 mg/kg/injection, schedule: Q04DX003 (sc), vehicle: suspension in saline) was 54 % of control; the T/C (dose: 166.0 mg/kg/injection, schedule: Q04DX003 (ip), vehicle: dextrose) was 37 % of control; the T/C (dose: 166.0 mg/kg/injection, schedule: Q04DX003 (ip), vehicle: other) is 13 % of control; the T/C (dose: 166.7 mg/kg/injection, schedule: Q04DX003 (ip), vehicle: other) is 20 % of control. Moreover, the T/C (dose: 276.67 mg/kg/injection, schedule: Q04DX003 (ip), vehicle: dextrose) was 19 % of control and the T/C (dose: 276.67 mg/kg/injection, schedule: Q04DX003 (ip), vehicle: other) is 10 % of control.
Regarding `[Cl][Pt][Cl].[NH-]C(CO)C(=O)O` (centres undefined), the T/C is 92 % of control (dose: 12.5 mg/kg/injection, schedule: Q04DX003 (ip), vehicle: water); 100 % of control (dose: 25.0 mg/kg/injection, schedule: Q04DX003 (ip), vehicle: water); 57 % of control (dose: 37.5 mg/kg/injection, schedule: Q04DX003 (ip), vehicle: water); 100 % of control (dose: 50.0 mg/kg/injection, schedule: Q04DX003 (ip), vehicle: water); 11 % of control under setting [5]; 16 % of control (dose: 100.0 mg/kg/injection, schedule: Q04DX003 (ip), vehicle: water).
`[NH-]C(CCC(N)=O)C(=O)O.[NH-]C(CCC(N)=O)C(=O)O.[Zn+2]` (centres undefined): under setting [6], the T/C was 97 % of control.
`O=C1CN(c2ccccc2)C(=O)C1C(=O)Nc1ccc(Cl)c(Cl)c1` (centres undefined): the T/C by setting is: (dose: 120.0 mg/kg/injection, schedule: Q04DX003 (ip), vehicle: saline with Tween-80) 70 % of control; under setting [7], 32 % of control.
Consider `COC(=O)NC1C(C)OC(OC2C/C=C(/C)C3C=CC4C(OC5CC(OC6CC(OC7CC(O)C(O)C(C)O7)C(OC7CC(O)C(OC)C(C)O7)C(C)O6)C(O)C(C)O5)C(C)CC(C)C4C3(C)/C(O)=C3\C(=O)OC4(CC(C)C(CO)=CC4/C=C\2C)C3=O)CC1(C)[N+](=O)[O-]` (centres undefined), for which the T/C is 198 % of control under setting [5]; 120 % of control (dose: 150.0 mg/kg/injection, schedule: Q04DX003 (ip), vehicle: water); 73 % of control (dose: 300.0 mg/kg/injection, schedule: Q04DX003 (ip), vehicle: water).
Regarding `Cc1cc2cc3cc(C)c(N)cc3nc2cc1N`, the T/C (dose: 200.0 mg/kg/injection, schedule: Q04DX003 (sc), vehicle: saline with Tween-80) is 161 % of control; the T/C (dose: 400.0 mg/kg/injection, schedule: Q04DX003 (sc), vehicle: saline with Tween-80) was 106 % of control; the T/C (dose: 800.0 mg/kg/injection, schedule: Q04DX003 (sc), vehicle: saline with Tween-80) was 107 % of control; the T/C (dose: 1600.0 mg/kg/injection, schedule: Q04DX003 (sc), vehicle: saline with Tween-80) is 107 % of control.
As for `CNC(=O)N(C)N=NCCCl`, the T/C reads like this: (dose: 100.0 mg/kg/injection, schedule: Q04DX003 (ip), vehicle: saline with Tween-80) 15 % of control; (dose: 140.0 mg/kg/injection, schedule: Q04DX003 (ip), vehicle: saline with Tween-80) 10 % of control; (dose: 200.0 mg/kg/injection, schedule: Q04DX003 (ip), vehicle: saline with Tween-80) 1 % of control; under setting [7], 8 % of control; (dose: 400.0 mg/kg/injection, schedule: Q04DX003 (ip), vehicle: saline with Tween-80) -76 % of control.
Regarding `CC1(C)Nc2cc3c(cc2-n2cccc21)oc1ccccc13`, the T/C was 113 % of control (dose: 150.0 mg/kg/injection, schedule: Q04DX003 (ip), vehicle: DMSO); 90 % of control (dose: 300.0 mg/kg/injection, schedule: Q04DX003 (ip), vehicle: DMSO); 83 % of control (dose: 600.0 mg/kg/injection, schedule: Q04DX003 (ip), vehicle: DMSO); 80 % of control (dose: 1200.0 mg/kg/injection, schedule: Q04DX003 (ip), vehicle: DMSO).
As to `C[n+]1c(-c2ccc(/C=N/NC(=O)c3ccc(C(=O)N/N=C/c4ccc(-c5cn6ccccc6[n+]5C)cc4)cc3)cc2)cn2ccccc21`, the T/C under setting [6] was 92 % of control; the T/C under setting [3] is 56 % of control; the T/C (dose: 300.0 mg/kg/injection, schedule: Q04DX003 (ip), vehicle: saline with Tween-80) was 65 % of control; the T/C (dose: 600.0 mg/kg/injection, schedule: Q04DX003 (ip), vehicle: saline with Tween-80) was 69 % of control.
